Assay results as given in patent US20060204481A1, “Methods of promoting cell viability” (priority 2003, published 2006).

Tests used:
[1] = test system: TH-positive neurons and total cells in ventral mesencephalic (VM) tissue cultures; test: Dopamine neuron survival in serum-free ventral mesencephalic tissue cultures (TH-positive and total cell counts); type: cell-based, rat
Experimental: In order to examine the effects of TUDCA on apoptosis and the survival of dopamine neurons in VM tissue cultures under serum-free conditions and to determine an appropriate dosage of TUDCA, primary neuronal cultures were prepared from the VM tissue of SD rat embryos and incubated with or without the addition of TUDCA (Calbiochem, La Jolla, Calif., free base, dissolved in 0.15M (where “M” is molar concentration) NaHCO3 buffer). […] Therefore, TUDCA was added to a final concentration of 50 μM to the culture medium when the culture medium was switched to serum-free conditions after two days in vitro. Neural survival and apoptosis were determined by counting TH-positive cells and TUNEL-positive cells in the cultures two or seven days in vitro. A total of three separate series of cell culture experiments were performed.
For each experimental series, pooled VM tissue from 24-32 embryos was incubated in 0.1% trypsin (Sigma, St. Louis, Mo.)/0.05% DNase (Sigma, St. Louis Mo.) at 37 degrees Celsius (° C.) for 20 minutes (min), and mechanically dissociated using a 1 milliliter (ml) Gilson pipette. Following dissociation, the cells were centrifuged at 600 rotation per minute (rpm) for 5 min and the pellet was resuspended in Dulbecco's Modified Eagle's Medium (DMEM) (Gibco, Carlsbad, Calif.). The cell number and viabilities of dissociated cells were assessed with a hemocytometer using trypan blue dye exclusion. The number of 100,000 cells/cm^2 (178,000 cells per well) were plated on to four-well chamber slides (Nunc, Rochester, N.Y.) precoated with […] poly-d-lysine (Sigma, St. Louis Mo.). The viabilities of dissociated cells were over 95%. Cell cultures were incubated for 2 days in DMEM supplemented with 10% fetal calf serum at 37° C. in a 95% air/5% CO^2 humidified atmosphere. After 2 days in vitro, the culture medium was switched to serum-free N2 medium, consisting of DMEM/Ham's F 12(1:1) mixture (Gibco, Carlsbad, Calif.).
At this time point, some cultures were supplemented with TUDCA. […]

[2] = test system: TUNEL-positive cells in VM tissue cultures; test: TUNEL assay of apoptosis in VM tissue cultures; type: cell-based, rat; details: 50 μM TUDCA, p<0.01
Experimental: In order to examine the effects of TUDCA on apoptosis and the survival of dopamine neurons in VM tissue cultures under serum-free conditions and to determine an appropriate dosage of TUDCA, primary neuronal cultures were prepared from the VM tissue of SD rat embryos and incubated with or without the addition of TUDCA (Calbiochem, La Jolla, Calif., free base, dissolved in 0.15M (where “M” is molar concentration) NaHCO3 buffer). […] Therefore, TUDCA was added to a final concentration of 50 μM to the culture medium when the culture medium was switched to serum-free conditions after two days in vitro. Neural survival and apoptosis were determined by counting TH-positive cells and TUNEL-positive cells in the cultures two or seven days in vitro. […]
For each experimental series, pooled VM tissue from 24-32 embryos was incubated in 0.1% trypsin (Sigma, St. Louis, Mo.)/0.05% DNase (Sigma, St. Louis Mo.) at 37 degrees Celsius (° C.) for 20 minutes (min), and mechanically dissociated using a 1 milliliter (ml) Gilson pipette. […] The cell number and viabilities of dissociated cells were assessed with a hemocytometer using trypan blue dye exclusion. […]
For the cell culture experiments, the number of TUNEL-positive cells was assessed at ×400 magnification with the aid of a 400-μm square, reticule grid. […] Average number of TUNEL-positive cells was calculated and represented a value for single animals.

6-OHDA lesioned rats = test: Amphetamine-induced rotation test after nigral grafting in unilateral 6-OHDA lesioned rats; type: in vivo, rat
Text: A total of 24 adult female Sprague-Dawley (SD) rats, weighing about 250 grams (g) at the beginning of the experiments were used as subjects of neural grafts. Among them, 12 rats were subjected to an extensive unilateral 6-hydroxydopamine (6-OHDA) lesion of the mesostriatal dopamine (DA) system and 12 rats were normal.
The 6-OHDA lesioned rats and normal rats were randomly assigned to the TUDCA-treated (n=6 in each group) or the vehicle control (n=6 in each group) group, respectively. The rats were housed 2 per cage under a 12 hour day-night cycle with ad libitum access to food and water. They were maintained and treated in accordance with published National Institutes of Health guidelines.
For the TUDCA-treated rats, a 50 μM concentration of TUDCA was added to the media when nigral tissue was trypsinized and dissociated. Two microliters of cell suspension containing TUDCA were then stereotaxically injected into the striatum of SD rats. For the control animals, the same amount of vehicle solution was added to the media. In the first series of transplantation experiment, normal rats that received neural transplants were sacrificed 4 days post-grafting and brain sections were prepared for the terminal deoxynucleotidyl transferase (TdT)-mediated dUTP-biotin nick end labeling (TUNEL) assay to determine apoptosis in the transplantation areas. In the second series of transplantation experiments, an amphetamine-induced rotation test was used to assess the completeness of the 6-OHDA lesions prior to grafting, and repeated two and six weeks after transplantation to monitor functional effects of the neural grafts. The rats were sacrificed after the last session of the rotational behavioral test and the brain tissue was processed for tyrosine hydroxylase (TH)-immunocytochemistry. Graft survival was assessed by counting the number of TH-positive neurons in the grafts.
Two injections of 6-OHDA (hydrochloride salt, Sigma, St. Louis Mo.) were made into the right ascending mesostriatal DA pathway under equithesin anaesthesia (0.3 ml/100 g body wt. i.p.) as described previously (W.-M. Duan et al., Neuroscience 57:261-274; 1993). Briefly, a first injection of 2.5 microliter (μl) of 6-OHDA (3 microgram/microliter (μg/μl), free base, in 0.2 mg/ml ascorbate-saline) was performed at the following coordinates: 4.4 millimeter (mm) caudal to bregma; 1.2 mm lateral to midline; 7.8 mm ventral to the dural surface; with the tooth-bar set at 2.4 mm below the interaural line. A second injection of 2 μl of 6-OHDA was performed at the following coordinates; 4.0 millimeter (mm) caudal to bregma; 0.8 mm lateral to midline; 8.0 mm ventral to the dural surface; with the tooth-bar set at 3.4 mm above the interaural line. The 6-OHDA was infused at a rate of 1 μl/min, and the cannula was left in place for an additional 4 min before it was withdrawn.
Two to three weeks after the lesion surgery, the rats were given 5 milligram per kilogram (mg/kg) of d-amphetamine sulphate (Sigma, St. Louis Mo.) in saline, i.p. and their rotational behavior was monitored in automated rotometer bowls for 90 min (U. Ungerstedt et al., Brain Res. 24: 485-493; 1970). […] The rotational test was then repeated at two different time-points as mentioned in the experimental design.
A cell suspension technique was used to perform the neural transplants as previously described (A. Björklund et al., Acta. Physiol. Scand. Suppl. 522:9-18; 1983; P. Brundin et al., In: P. M. Conn, ed., Methods in Neurosciences, Lesions and Transplantation, Academic Press, San Diego, Vol 7, 1991:305-326). Briefly, VM tissue was obtained from embryos with a crown-to-rump length of 13-14 mm, corresponding to a gestational age of embryonic day 14. Dissection and preparation of the donor tissue were carried out under aseptic conditions in Hank's balanced salt solution (HBSS) (Gibco, Carlsbad, Calif.). […]

[3] = test system: TH-immunoreactive neurons in intrastriatal nigral grafts; test: Graft survival: TH-immunocytochemistry and graft volume 6 weeks after transplantation; type: in vivo, rat
[4] = test system: TUNEL-positive cells in the grafted areas; test: TUNEL assay of apoptosis in graft areas 4 days post-transplantation; type: in vivo, rat; details: normal rats, p<0.01
Experimental: For the TUDCA-treated rats, a 50 μM concentration of TUDCA was added to the media when nigral tissue was trypsinized and dissociated. Two microliters of cell suspension containing TUDCA were then stereotaxically injected into the striatum of SD rats. For the control animals, the same amount of vehicle solution was added to the media. In the first series of transplantation experiment, normal rats that received neural transplants were sacrificed 4 days post-grafting and brain sections were prepared for the terminal deoxynucleotidyl transferase (TdT)-mediated dUTP-biotin nick end labeling (TUNEL) assay to determine apoptosis in the transplantation areas. […] Graft survival was assessed by counting the number of TH-positive neurons in the grafts.
A cell suspension technique was used to perform the neural transplants as previously described (A. Björklund et al., Acta. Physiol. Scand. Suppl. 522:9-18; 1983; P. Brundin et al., In: P. M. Conn, ed., Methods in Neurosciences, Lesions and Transplantation, Academic Press, San Diego, Vol 7, 1991:305-326). […] Before and after transplantation, the viabilities of the cell suspensions were assessed by the trypan blue dye exclusion method. […]

pancreatic islet cells = test: Apoptosis (TUNEL) of pancreatic islet cells in vitro; type: cell-based; details: 2 days in vitro
Experimental: As another example, TUDCA was also effective in reducing apoptosis of pancreatic islet cells after 2 days in vitro. The number of TUNEL-positive cells was approximately 29 in non-treated controls, but only 12 in cells exposed to TUDCA. The more than 50% reduction by apoptosis by TUDCA was achieved after exposure of cells to TUDCA during the isolation procedure, followed by incubation with the bile acid during culture in vitro.

striatal tissue cultures = details: cited from earlier work
3-NP-lesioned rat = details: systemic administration; cited from earlier work

C[C@H](CCC(=O)NCCS(=O)(=O)O)[C@H]1CC[C@H]2[C@@H]3[C@@H](O)C[C@@H]4C[C@H](O)CC[C@]4(C)[C@H]3CC[C@]12C [TUDCA, tauroursodeoxycholic acid]
number of TH-positive cells, TUDCA-treated cultures compared with 2DIV cultures ([1]; 50 μM TUDCA added at switch to serum-free medium after 2 days in vitro, counted at 7 DIV, p>0.05): No difference | cell loss of TH-positive neurons and total cells ([1]; 7DIV TUDCA-treated cultures, serum-free, 7 DIV control had only 30% of 2 DIV TH-positive neurons): not observed | dose dependence of neural protective effect ([1]; VM tissue cultures, serum-free): dose-dependent manner | number of TUNEL-positive cells, 7 DIV control versus 7 DIV TUDCA-treated cultures [2]: significantly higher in 7 DIV control cultures | mean net rotation values compared to pregrafting values (6-OHDA lesioned rats; 2 weeks after grafting, p<0.01, not in control group): significantly reduced | rats exhibiting at least 50% reduction in net motor asymmetry compared to pre-transplantation values (6-OHDA lesioned rats; 2 weeks after transplantation, cell suspension pre-treated with 50 μM TUDCA, none of the control animals): 4 of 6 | net asymmetry values compared to control group (6-OHDA lesioned rats; 2 weeks after transplantation, p<0.05): lower net asymmetry values than the control group | motor asymmetry scores compared to pregrafting (6-OHDA lesioned rats; 6 weeks after surgery, p<0.05, both groups): significantly reduced motor asymmetry scores | difference in motor asymmetry scores between TUDCA-treated and control groups (6-OHDA lesioned rats; 6 weeks after surgery, p>0.05): not longer any difference | reduction in motor asymmetry scores (6-OHDA lesioned rats; 6 weeks following transplantation, all rats of both control and TUDCA-treated groups): > 50% | areas of the host striatum reinnervated by the grafts compared to control group [3]: larger | graft volume compared to control group ([3]; p<0.05): significantly larger | number of apoptotic (TUNEL-positive) cells in the grafted areas compared to control group [4]: significantly smaller | number of TUNEL-positive cells (pancreatic islet cells; TUDCA during isolation and culture, non-treated controls approximately 29): 12 | reduction of apoptosis (pancreatic islet cells; versus non-treated controls): more than 50% | 3-nitropropionic acid (3-NP)-mediated neuronal cell death (striatal tissue cultures): significantly reduces | neurological deficits (3-NP-lesioned rat): ameliorate neurological deficits | striatal degeneration (3-NP-lesioned rat): reduce striatal degeneration
